What all share (type): in vivo
The nature of data set [1]: Tissue distribution test of Compound 27 and Compound 10 (plasma and brain). The following applies: intragastric 2 mg/kg, 2 h after administration, male CD-1 mice. The method, then: Taking male CD-1 mice as test animals, drug concentrations in plasma and brain after intragastric administration of Compound 27 and Compound 10 to the mice were determined by the LC/MS/MS method, respectively.
2.2 Test Animals: Six healthy adult male CD-1 mice were divided into 2 groups, with 3 mice in each group, according to the principle of similar body weight. The animals were purchased from Shanghai Super-BK Laboratory Animal Co., Ltd., with Animal Production License No.: SCXK (Shanghai) 2013-0016.
An appropriate amount of sample was weighed, and an appropriate amount of DMSO, PEG400 and water were added successively at a volume ratio of 10:40:50. After stirring and ultrasonic processing, the resulting mixture reached a clear solution state of 0.4 mg/mL.
Six male CD-1 mice were divided into 2 groups, fasted overnight, and intragastrically administered at an administration volume of 5 mL/kg in a dose of 2 mg/kg.
After Compound 27 and Compound 10 were intragastrically administered to the male CD-1 mice, 100 μL of blood was collected by cardiac puncture at 2 h, placed in a test tube containing 2 μl of EDTA-K2, and centrifuged at 3000 g for 15 min to separate 50 μL of plasma, which was stored at −60° C. Meanwhile, brain tissues were collected, washed, then homogenized with 5-fold 15 mM PBS/MeOH (v:v, 2:1), and stored at −60° C. The animals were allowed to eat 2 hours after administration.
(§1) After intragastric administration to the mice, the content of the test compound in plasma and brain was determined by the LC/MS/MS method. The linear range of the method was 2.00-6000 nmol/L; and the plasma samples were analyzed after the treatment with acetonitrile precipitated protein.

Data set [2] in a line: Pharmacokinetic test of Compound 10 in mice (intravenous and intragastric). Conditions: mouse, plasma, male CD-1 mice; for AUC(0-inf): read-out: Curve Area (0-inf) AUC0-inf; for AUC(0-t): read-out: Curve Area (0-t) AUC0-last; for half-life: read-out: Half Life T1/2 (converted). The method, then:
Taking male CD-1 mice as test animals, drug concentrations in plasma at different moments after intravenous and intragastric administration of Compound 10 to the mice were determined by the LC/MS/MS method. The pharmacokinetic behavior of Compound 10 in mice was investigated and its pharmacokinetic profile was evaluated.
2.2 Test Animals: Four healthy adult male CD-1 mice were divided into 2 groups, with 2 mice in each group, according to the principle of similar body weight. The animals were purchased from Shanghai Super-BK Laboratory Animal Co., Ltd., with Animal Production License No.: SCXK (Shanghai) 2013-0016.
2.3 Drug Preparation An appropriate amount of sample was weighed, and an appropriate amount of DMSO, PEG400 and water were added successively at a volume ratio of 10:40:50. After stirring and ultrasonic processing, the resulting mixture reached a clear solution state of 0.4 mg/mL for intravenous administration.
An appropriate amount of sample was weighed, and dissolved in a solution of 0.5% CMC+0.2% Tween 80. After stirring and ultrasonic processing, the resulting mixture reached a uniform suspension state of 0.4 mg/mL for intragastric administration.
Four male CD-1 mice were divided into 2 groups, and fasted overnight. The first group was intravenously administered at an administration volume of 2.5 mL/kg in a dose of 1 mg/kg; and the second group was intragastrically administered at an administration volume of 5 mL/kg in a dose of 2 mg/kg.
(§2) After Compound 10 was intravenously administered to the male CD-1 mice, 30 μL of blood was collected at 0.0833, 0.25, 0.5, 1, 2, 4, 8, and 24 h respectively, and placed in test tubes containing 2 μL of EDTA-K2. After Compound 10 was administered to the intragastric administration group, 30 μL of blood was collected at 0.25, 0.5, 1, 2, 4, 8, and 24 h respectively, and placed in test tubes containing 2 μL of EDTA-K2. The test tubes were centrifuged at 3000 g for 15 min to separate the plasma, which was stored at −60° C. The animals were allowed to eat 2 hours after administration.
(§3) After intravenous and intragastric administration to the mice, the content of the test compound in plasma was determined by the LC/MS/MS method. The linear range of the method was 2.00-6000 nmol/L; and the plasma samples were analyzed after the treatment with acetonitrile precipitated protein.

Data set [3] is described as follows: Tissue distribution test of Compound 35 and Compound 58 (plasma and brain). The following applies: intragastric 2 mg/kg, 4 h after administration, male CD-1 mice; for Kp at 4 h / concentration at 4 h: mouse, oral; for Kp at 4 h: brain / plasma, read-out: Brain to Blood Ratio; for concentration at 4 h: plasma. The method, then: Taking male CD-1 mice as test animals, drug concentrations in plasma and brain after intragastric administration of Compound 35 and Compound 58 to the mice were determined by the LC/MS/MS method, respectively.
2.2 Test Animals: Two healthy adult male CD-1 mice. The animals were purchased from Shanghai Sippr-BK Laboratory Animal Co., Ltd.
An appropriate amount of sample was weighed, and added in a solution of 0.5% CMC+0.2% Tween in water. After stirring and ultrasonic processing, the resulting mixture reached a suspension state of 0.4 mg/mL.
Two male CD-1 mice were fasted overnight, and intragastrically administered at an administration volume of 5 mL/kg in a dose of 2 mg/kg.
After Compound 35 and Compound 58 were intragastrically administered to the male CD-1 mice, 100 μL of blood was collected by cardiac puncture at 4 h, placed in a test tube containing 2 μl of EDTA-K2, and centrifuged at 3000 g for 15 min to separate 30 μL of plasma, which was stored at −60° C. Meanwhile, brain tissues were collected, washed, then homogenized with 9-fold 15 mM PBS/MeOH (v:v, 2:1), and stored at −60° C. The animals were allowed to eat 4 hours after administration.
as §1

Data set [4] is described as follows: Pharmacokinetic test of Compound 35 and Compound 58 in mice (intravenous and intragastric). Conditions: mouse, plasma, male CD-1 mice; for AUC(0-t): read-out: Curve Area (0-t) AUC0-last; for Cmax: read-out: Plasma Concentration Cmax; for Tmax: read-out: Time to Peak Tmax; for Vd: read-out: Apparent Volume of Distribution Vdss; for clearance: read-out: Clearance Rate CI; for AUC(0-inf): read-out: Curve Area (0-inf) AUC0-inf; for half-life: read-out: Half Life T1/2 (converted). The method, then:
With reference to Example 76, the pharmacokinetic behaviors of Compound 35 and Compound 58 in mice were investigated and their pharmacokinetic profiles were evaluated.
2. Experimental Protocol Refers to Example 76.
as §2, with “Compound 35 and Compound 58 were” for “Compound 10 was”, “was cross-collected” for “was collected”, “8, 24,” for “8,”, “and 48” for “and 24”, “tubes was” for “tubes were”, “eat 4” for “eat 2”
as §3

Setting [5] is: po, intragastric administration, 2 mg/kg.
The mark [6] stands for this setting: intravenous administration, 1 mg/kg.

Usually bioavailability stands for dose-corrected exposure relative to a reference, in per cent. A low value points to little systemic uptake. By Tmax is commonly meant the time at which the peak concentration occurs. In general, clearance refers to the volume of plasma or blood freed of the substance per unit of time.

As to `CCc1nc(OCCO)c2cc(N3C(=S)N(c4ccc(C#N)c(C(F)(F)F)c4)C(=O)C3(C)C)cc(F)c2n1` [Compound 10], the “Concentration in Brain” value in data set [1] worked out at 67.38 ± 44.5 nmol/kg. In addition, the Kp at 2 h in data set [1] (mouse, brain / plasma, oral, read-out: Brain to Blood Ratio) was determined as 0.0133 ± 0.0006. This compound registered a concentration at 2 h in data set [1] (mouse, plasma, oral) of 5 ± 3.16 µM. Besides, in data set [2] (setting [5]), the bioavailability turned out to be 41.7%, the AUC(0-inf) was determined as 27.9 µM·h, the AUC(0-t) is 26.3 µM·h and the half-life is 5.5 h. The Cmax in data set [2] (po, intragastric administration, 2 mg/kg, read-out: Plasma Concentration Cmax) was determined as 2.77 µM. Moreover, the Tmax in data set [2] (po, intragastric administration, 2 mg/kg, read-out: Time to Peak Tmax) turned out to be 4 h. In addition, the Vd in data set [2] (intravenous administration, 1 mg/kg, read-out: Apparent Volume of Distribution Vdss) turned out to be 0.384 L/kg. Also, the clearance in data set [2] (intravenous administration, 1 mg/kg, read-out: Clearance Rate CI) was 0.912 mL/min/kg. Further, in data set [2] (setting [6]), the AUC(0-inf) was determined as 33.5 µM·h, the AUC(0-t) was determined as 32.3 µM·h and the half-life was 4.88 h.
For `CCc1cc(=O)n2cc(N3C(=S)N(c4ccc(C#N)c(C(F)(F)F)c4)C(=O)C3(C)C)cc(F)c2n1` [Compound 35], in data set [3], the “Concentration in Brain” value is recorded as 281 nmol/kg, the Kp at 4 h was found to be 0.0742 and the concentration at 4 h was 4.12 µM. In addition, in data set [4] (setting [5]), the bioavailability was determined as 94%, the AUC(0-t) was found to be 110 µM·h, the Cmax was 5.78 µM and the Tmax worked out at 6 h. Also, in data set [4] (setting [6]), the Vd was 0.667 L/kg, the clearance came to 0.189 mL/min/kg, the AUC(0-inf) was 194 µM·h and the AUC(0-t) is 58.7 µM·h. In addition, the half-life in data set [4] (setting [6]) was 45.1 h.
For the compound `CCc1cc(=O)n2cc(N3C(=S)N(c4ccc(C#N)c(Cl)c4)C(=O)C3(C)C)cc(F)c2n1` [Compound 58], in data set [3], the “Concentration in Brain” value came out at 265 nmol/kg, the Kp at 4 h is 0.0322 and the concentration at 4 h was found to be 8.26 µM. Also, in data set [4] (setting [5]), the AUC(0-t) worked out at 370 µM·h, the Cmax is 12.8 µM and the Tmax turned out to be 8 h. Also, in data set [4] (setting [6]), the Vd was determined as 0.248 L/kg, the clearance turned out to be 0.0794 mL/min/kg, the AUC(0-inf) was 447 µM·h and the AUC(0-t) was determined as 271 µM·h. In addition, the half-life in data set [4] (setting [6]) was 36.6 h.

The record behind these values is patent US11866433B2, “Diarylthiohydantoin compound as androgen receptor antagonist” (CHIA TAI TIANQING PHARMACEUTICAL GROUP CO., LTD., priority 2017, dated 2024).
